Here are results for 3 compounds from ChEMBL document CHEMBL1143792, “Natural dibenzoxazepinones from leaves of Carex distachya: Structural elucidation and radical scavenging activity” (Bioorg Med Chem Lett, 2007).

Assay [1] in a line: Nitric oxide radical scavenging activity at 0.1 mg/ml. Format: functional.
The nature of assay [2]: DPPH radical scavenging activity at 0.1 mg/ml. The assay is classed as functional. Background: DPPH is a stable violet radical that fades when it is reduced.

In turn, `COc1cc2c(c(O)c1C)C(=O)Nc1ccc(O)cc1O2` displayed an Activity in assay [1] of 59%.
The same measure, in the same setting: the value for `O=C1O[C@H]([C@@H](O)CO)C(O)=C1O` was 66%.
As to `COc1cc2c(c(OC)c1C)C(=O)Nc1ccc(O)c(C)c1O2`, the Activity in assay [1] turned out to be 63%; in assay [2], 25%.
